Results reported in patent US7718641B2, “Pyrrolo [3,4-H] isoquinoline compounds and methods for modulating gated ion channels” (Aros Pharma ApS, priority 2005, dated 2010).

Tests used:
[1] = system: rat dorsal root ganglion neurons; assay: Patch clamp (voltage clamp) of native proton-gated currents in rat dorsal root ganglion neurons in primary culture; format: cell-based; conditions: 1 μM, voltage-clamp mode, n=3
Experimental: These endogenous proton-activated inward currents were recorded in the presence and absence of Compound A (1 μM) or Compound H (1 μM) using the whole cell configuration of the patch clamp method (voltage clamp mode).
Sensory neurons can be isolated and cultured in vitro from different animal species. The most widely used protocols use sensory neurons isolated from neonatal (Eckert, et al. (1997) J Neurosci Methods 77:183-190) and embryonic (Vasko, et al. (1994) J Neurosci 14:4987-4997) rat. […] Electrophysiology is performed similarly as described above in Example 2. […] In the current-clamp mode, change in the trans-membrane potential are recorded. Under acidic conditions (e.g., pH 6.5) the membrane depolarizes, leading to the firing of action potentials, as shown in FIGS. 7A and 7B.

[2] = system: CFA-induced inflammatory pain; assay: CFA model of chronic inflammatory pain, hindpaw weight bearing (Incapacitance Tester); format: in vivo, rat; conditions: 24 h after CFA, 60 min after drug injection, n=7-8
Experimental: Rats (body weight 260-300 g) were given a s.c. injection of CFA (50% in saline, 100 μl, Sigma) into the plantar surface of the hindpaw under brief halothane anaesthesia. After 24 h, they were then tested for hindpaw weight bearing responses, as assessed using an Incapacitance Tester (Linton Instrumentation, UK), (Zhu et al., 2005). The instrument incorporates a dual channel scale that separately measures the weight of the animal distributed to each hindpaw. While normal rats distribute their body weight equally between the two hindpaws (50-50), the discrepancy of weight distribution between an injured and non-injured paw is a natural reflection of the discomfort level in the injured paw (nocifensive behavior). The rats were placed in the plastic chamber designed so that each hindpaw rested on a separate transducer pad. […] For each rat, three readings from each paw were taken and then averaged. Side-to-side weight bearing difference was calculated as the average of the absolute value of the difference between two hindpaws from three trials (right paw reading-left paw reading).
Hindpaw weight bearing responses were measured in male Sprague-Dawley rats for 2-3 days prior to being given a hindpaw injection of CFA. Twenty-four hours later baseline responses were measured and rats were then administered Compound A (5, 10 and 20 mg/kg, i.p.), Compound H (10, 30 and 60 mg/kg) and morphine (3, 6 and 10 mg/kg). Weight bearing responses were then measured at 30, 60 and 120 min after drug or vehicle injection (data shown at 60 min.). […] Data are expressed as mean +/−SEM. *P<0.05, **P<0.01, *** P<0.001 vs baseline; +++: P<0.001 vs vehicle. All groups n=7-8.

formalin-induced pain = assay: Formalin test, model of acute tonic pain; format: in vivo, rat
Experimental: Male Sprague-Dawley rats are housed together in groups of three animals under standard conditions with unrestricted access to food and water. All experiments are conducted according to the ethical guidelines for investigations of experimental pain in conscious animals (Zimmerman, 1983)
Assessment of formalin-induced flinching behavior in normal, uninjured rats (body weight 150-180 g) was made with the use of an Automated Nociception Analyser (University of California, San Diego, USA). Briefly, this involved placing a small C-shaped metal band (10 mm wide×27 mm long) on the hindpaw of the rat to be tested. The rats (four rats were included in each testing session) were then placed in a cylindrical plexiglass observation chamber (diameter 30.5 cm and height 15 cm) for 20 min for adaptation purposes prior to being administered drug or vehicle according to the experimental paradigm being followed. After adaptation, individual rats were then gently restrained and formalin (5% in saline, 50 μl, s.c.) was injected into the plantar surface of the hindpaw using a 27G needle. Rats were then returned to their separate observation chambers, each of which were in turn situated upon an enclosed detection device consisting of two electromagnetic coils designed to produce an electromagnetic field in which movement of the metal band could be detected. The analogue signal was then digitised and a software algorithm (LabView) applied to enable discrimination of flinching behaviour from other paw movements. A sampling interval of 1 min was used and on the basis of the resulting response patterns 5 phases of nociceptive behaviour were identified and scored: first phase (P1; 0-5 min), interphase (Int; 6-15 min), second phase (P2; […]), phase 2A (P2A; 16-40 min) and phase 2B (P2B; 41-60 min).
Nociceptive behavior was also determined manually every 5 min by measuring the amount of time spent in each of four behavioral categories: 0, treatment of the injected hindpaw is indistinguishable from that of the contralateral paw; 1, the injected paw has little or no weight placed on it; 2, the injected paw is elevated and is not in contact with any surface; 3, the injected paw is licked, bitten, or shaken. A weighted nociceptive score, ranging from 0 to 3 was calculated by multiplying the time spent in each category by the category weight, summing these products, and dividing by the total time for each 5 min block of time. (Coderre et al., Pain 1993; 54: 43). On the basis of the resulting response patterns, […] of nociceptive behavior were identified and scored: first phase (P1; 0-5 min), interphase (Int; 6-15 min), second phase (P2; […]), phase 2A (P2A; 16-40 min) and phase 2B (P2B; 41-60 min). […]

Row | Compound | effect on pH 6.5-induced inward current in sensory neurons [1] | CFA-induced change in hindpaw weight bearing compared with vehicle [2] | ED50 (formalin-induced pain; Rattus norvegicus, ip, i.p. 30 min before formalin, phase 2 (phase IIa), rat, read-out: ED50, total pain score in the formalin test) [mg/kg] | total pain score behavior (flinching, licking, biting) (formalin-induced pain; i.p. 30 min before formalin, phase 1 and 2, n=6-8) | pain intensity as evaluated by the flinching behavior (formalin-induced pain; Automated Nociception Analyser, n=6-8)
1 | COc1ccc(F)cc1-c1cc2c(c3c1CCN(C)C3)NC(=O)/C2=N/O [Compound A, 5-(5-fluoro-2-methoxyphenyl)-6,7,8,9-tetrahydro-3-(hydroxyimino)-8-methyl-1H-pyrrolo[3,2-h]isoquinoline-2(3H)-one] | inhibit the pH 6.5-induced inward current | marked dose-dependent attenuation in the CFA-induced change in weight bearing | ~12 | reduce the total pain score behavior | –
2 | CCN1CCc2c(-c3ccccc3)cc3c(c2C1)NC(=O)/C3=N/O [Compound H, 5-phenyl-6,7,8,9-tetrahydro-3-(hydroxyimino)-8-ethyl-1H-pyrrolo[3,2-h]isoquinoline-2(3H)-one] | inhibit the pH 6.5-induced inward current | marked dose-dependent attenuation in the CFA-induced change in weight bearing | – | – | dose-dependent reduction of the pain intensity
